In brackets after ≈: the same amount, converted by molar mass. Where two headings read alike, the source gives them in different places.
What was measured:
[1] = tested on: Septoria tritici MUCL45408; experiment: Minimum inhibitory concentration (MIC), S. tritici (ATP quantification); format: cell-based; conditions: for MIC: Zymoseptoria tritici, read-out: MIC St
Procedure: (§1) The minimum inhibitory concentration (MIC) of the synthesized compounds was initially determined against three microbial indicator strains (Escherichia coli ATCC35218, […] ATCC33592, Septoria tritici MUCL45408). […]
(§2) 2. Microbial and parasitological studies
(§3) The minimum inhibitory concentration (MIC) of the synthesized compounds was determined against three microbial indicator strains (E. coli ATCC35218, S. aureus ATCC33592 and S. tritici MUCL45408) as previously described.1,2 All samples were dissolved in DMSO and tested in triplicate. Briefly, a pre-culture of E. coli and S. aureus was prepared by incubating the strains in cation adjusted Mueller Hinton 2 broth (Becton Dickinson, Sparks, NV, USA) at 37°C and 180 rpm overnight. The cell density of adjusted to 5 × 10^5 cells/mL before assays were incubated at 37 °C, 180 rpm and 85% rH. Three distinct dilution series of standard antibiotics (gentamicin, rifampicin, and tetracycline) were used as positive controls on each assay plate. Inoculated medium without test compound or positive control was used as negative control.
Medium background was averaged from 5 replicates. The turbidity of each well was measured with a microplate spectrophotometer at 600 nm (LUMIstar® Omega, BMG Labtech) and growth inhibition was calculated relative to the absorption of the controls. For S. tritici MUCL45408 inoculated at a density of 1 × 10^5 cells/mL in potato […]
dextrose medium. Septoria assay plates were incubated for 4 days at 25 °C, 180 rpm and 85% rH. Tebuconazole, amphotericin B, and nystatin were used as positive controls. Cell viability was evaluated via ATP quantification (BacTiter-Glo™, Promega GmbH, Walldorf, Germany) according to the manufacturer’s instructions. […]

[2] = tested on: C. elegans DC19; experiment: whole plant or invertebrate; format: cell-based, Caenorhabditis elegans
Text: (§4) The cuticle of C. elegans strain DC19 is known to be more permeable for small molecules compared to the wildtype N2.[30] DC19 is thereby considered an informative drug-sensitive test organism. In our assays, we determined the minimum mobility inhibitory concentration (MMIC) as a proxy for anthelmintic activity. […] In contrast, MMICs of some small molecule anthelmintics such as albendazole, mebendazole or PF-1022A were lower for DC19 (Fig. S1 ^†). […]
(§5) 2.2 In vitro tests against Caenorhabditis Elegans
(§6) The minimal motility inhibitory concentration (MMIC) of compounds 1-22 against C. elegans was determined as described before.3 Both strains, C. elegans N2 and DC19 were treated identically. Briefly, pre-cultures of C.elegans were kept on NGM agar plates infused with auxotrophic E.coli OP50 as food source.4 After 4 days the plates contained sufficient gravid worms, respectively. Worms were washed from the plates with M9 buffer using wide bore pipette tips. Egg preparation was carried out by treating the harvested worms with an alkaline hypochlorite solution (5 M NaOH + 5 % NaOCl 1:2) in polypropylene tubes. Larvae and adult […]
(§7) We carried out 3 washing steps (M9 buffer) to remove carry-over hypochlorite solution. Subsequently, the eggs were incubated overnight in NGM broth on a rotator to yield synchronized hatched L1/L2 larvae. The larvae solution was adjusted to 100 worms/mL and supplemented with cholesterol (5 µg/mL), carbenicillin (25 µg/mL) and E.coli OP50 (0.5%). This assay solution was distributed into 96 well plates and incubated with a dilution series of compounds 1-22 (64-0.5 µg/mL). An additional eight-point dilution series of ivermecin (40 – 0.3 ng/mL) was used as positive control on each assay plate. Solvent background was controlled by supplementation of pure DMSO without any compound. Assays were incubated for 2 days at room temperature. Finally, a cell imaging multimode reader (Cytation™ 5) was used to record short videos (1.5 seconds) of each individual test well. The videos were used to evaluate the worm motility.

[3] = tested on: C. elegans N2; experiment: whole plant or invertebrate; format: cell-based, Caenorhabditis elegans; conditions: for minimal effective concentration: Caenorhabditis elegans, 48 h, read-out: MMIC N2
Text: as §4, §5, §6, §7

[4] = tested on: S. aureus ATCC33592; experiment: microbe, parasite or virus in culture; format: cell-based; conditions: Staphylococcus aureus, ATCC33592, read-out: MIC Sa
Procedure: as §1, §2
as §3, with “and tetracycline) were used as positive controls on each assay plate. Inoculated medium without test compound or positive control was used as negative control.” left out
(§8) medium without test compound or positive control was used as negative control.
(§9) Medium background was averaged from 5 replicates. The turbidity of each well was […]

[5] = tested on: Escherichia coli ATCC35218; experiment: microbe, parasite or virus in culture; format: cell-based; conditions: ATCC35218, read-out: MIC Ec
Procedure: as §1, §2
as §3, with “and tetracycline) were used as positive controls on each assay plate. Inoculated medium without test compound or positive control was used as negative control.” left out
as §8, §9

[6] = tested on: MDCK II cells; experiment: In vitro cytotoxicity, CellTiter-Glo, MDCK II cells; conditions: 100 μM; for MDCKII cytotoxicity: 48 h, cell viability less than 80% relative to DMSO control = cytotoxic
[7] = tested on: Schistosoma mansoni; experiment: In vitro tests against Schistosoma mansoni (vitality parameters of adult worm pairs); format: cell-based
Procedure: Subsequently, we tested whether compounds with nematocidal activity display a broader activity also against parasitic flatworms. To this end, in vitro tests against the blood fluke S. mansoni were conducted (Fig. 4). The worms were incubated in presence of 10 and 20 μM of compounds 1–22 and phenotypic vitality parameters (separation of worm pairs, detachment of suckers from the bottom of the well and weakening of body movements) were assessed as previously described.[31] Compounds reaching 100% effect strength in one of the parameters within 7 days were considered active. Reduction of motility is considered most relevant for antischistosomal drug candidates.[32] In addition, loss of sucker activity would make parasites drifting off from their host habitat (mesenteric veins) and with pair separation, the production of pathology-causing eggs eventually ceases.[33] […] For some molecular targets e.g. glutamate and GABA chloride channels (ivermecin, abamectin) and β-tubulin (albendazole, mebendazole) the C. elegans assays results were transferable to Schistosoma, while for others e.g. acetylcholin mimetic (levamisole) the C. elegans MMIC was not predicative (Fig. S1 ^†).
2.2 Parasitological studies
Animal experiments were performed in accordance with Directive 2010/63/EU on the protection of animals used for scientific purposes and the German Animal Welfare Act. The experiments were approved by the Regional Council (Regierungspraesidium) Giessen (V54 – […]
A Liberian strain of S. mansoni was maintained in the freshwater snail Biomphalaria glabrata as intermediate host and Syrian hamsters (Mesocricetus auratus) as final host (Janvier Labs, France).5,6 Hamsters were infected at 8 weeks of age with 1,750 cercariae by using the paddling method.7 Adult worms were collected at 46 days p.i. by hepatoportal perfusion and cultured in M199 medium (Sigma-Aldrich, Germany) supplemented with 10% Newborn Calf Serum (NCS, Sigma-Aldrich), 1% 1 M HEPES (ThermoFisher Scientific, USA) and 1% ABAM solution (10,000 units/ml penicillin, 10 mg/ml streptomycin and […] amphotericin B; Sigma-Aldrich, Germany) at 37 °C, 5% CO2 and humidified atmosphere.
2.2.3. In vitro tests against Schistosoma mansoni
Test compounds were added at 10 µM or 20 µM in supplemented M199 medium to schistosomes (5 worm pairs per replicate) followed by a 7 d in vitro culture. Worms receiving the solvent DMSO at equal dilution served as negative control. The following vitality parameters were assessed every 24 h by bright field microscopy using a Leica DM IL inverted microscope and x2.5 objective lens: separation of worm pairs into male and female worms; detachment of suckers from the bottom; and weakening of body movements. Worm motility was scored as described previously, 8 with the scores 3 (normal motility), 2 (reduced motility), 1 (minimal and sporadic movements), 0 (no movements within 20 sec; dead worms). An average score of all worms per well was calculated to obtain a motility score. An average motility score of 0, separation of all pairs or detachment of all worms per well was considered

[8] = Figure S1, common small molecule anthelminthics

C[C@@H]1[C@H](O)[C@@H](C)/C=C/C=C/C=C/C=C/C=C/C=C/C=C/[C@H](O[C@@H]2O[C@H](C)[C@@H](O)[C@H](N)[C@@H]2O)C[C@@H]2O[C@](O)(C[C@@H](O)C[C@@H](O)[C@H](O)CC[C@@H](O)C[C@@H](O)CC(=O)O[C@H]1C)C[C@H](O)[C@H]2C(=O)O [AMP, amphotericin B, reference compound]
MIC ([1]; MUCL45408, 96 h): 0.125 µg/mL (≈ 0.135 µM)

CCCSc1ccc2nc(NC(=O)OC)[nH]c2c1 [Albendazole, reference compound]
C. elegans MMIC DC19 [2]: < 0.08 µg/mL | C. elegans MMIC N2 [3]: 0.16 µg/mL

CNC(=O)O/N=C/C(C)(C)SC [Aldicarb, reference compound]
C. elegans MMIC DC19 [2, 8]: > 10 µg/mL | C. elegans MMIC N2 [3, 8]: > 10 µg/mL

CC1(C)CC(Cl)CN(Cc2cccc(CN3CC(Cl)CC(C)(C)C3)c2)C1 (centres unmarked) [Compound 1]
MIC [4]: > 64 µg/mL | MIC [5]: > 64 µg/mL | minimal effective concentration [3]: 64 µg/mL | MIC ([1]; MUCL45408, 96 h): 64 µg/mL (≈ 161 µM) | cytotoxicity against MDCK II (in words) [6]: cytotoxic | MDCKII cytotoxicity [6]: + (“+” (toxic)) | activity against S. mansoni (100% effect strength in one parameter within 7 days = active) ([7]; 10 or 20 μM): Schistosoma-specific | motility score ([7]; score 3 normal motility to 0 dead, paragraph on 20 μM): 1–1.2

CC1(C)CC(Cl)CN(Cc2cccc(CN3CC(Cl)CC(C)(C)C3)n2)C1 (centres unmarked) [Compound 6]
MIC [4]: 64 µg/mL (≈ 161 µM) | MIC [5]: > 64 µg/mL | minimal effective concentration [3]: 64 µg/mL | MIC ([1]; MUCL45408, 96 h): > 64 µg/mL | MDCKII cytotoxicity [6]: + (“+” (toxic))

CCCCN1CC(Cl)CC(C)(C)C1 (centres unmarked) [Compound 16]
MIC [4]: > 64 µg/mL | MIC [5]: > 64 µg/mL | minimal effective concentration ([2]; Caenorhabditis elegans, 48 h, read-out: MMIC DC19): > 64 µg/mL | minimal effective concentration [3]: > 64 µg/mL | MIC ([1]; MUCL45408, 96 h): > 64 µg/mL | MDCKII cytotoxicity [6]: − (“−” (not toxic))

CNC(C)C1CCC(N)C(OC2C(N)CC(N)C(OC3OCC(C)(O)C(NC)C3O)C2O)O1 (centres unmarked) [GEN, gentamicin, reference compound]
MIC [4]: 0.5 µg/mL (≈ 1.05 µM) | MIC [5]: 1 µg/mL (≈ 2.09 µM)

C[C@H](CCC(=O)O)C[C@H](C)C[C@H](C)C(=O)/C=C(\O)[C@H](C)C[C@H](C)C/C=C/[C@@H](C)[C@@H](O)[C@@H](C)[C@@H](O)C[C@@H]1CC[C@@](C)([C@H]2CC[C@@](C)([C@@H](C)O)O2)O1 [ION, ionomycin, reference compound]
MDCKII cytotoxicity [6]: + (“+” (toxic))

c1ccc([C@H]2CN3CCSC3=N2)cc1 [Levamisole, reference compound]
C. elegans MMIC DC19 [2]: 0.3 µg/mL | C. elegans MMIC N2 [3]: 0.3 µg/mL

COC(=O)Nc1nc2ccc(C(=O)c3ccccc3)cc2[nH]1 [Mebendazole, reference compound]
C. elegans MMIC DC19 [2, 8]: 0.3 µg/mL | C. elegans MMIC N2 [3, 8]: 1.25 µg/mL

C[C@@H]1[C@H](O)[C@@H](C)/C=C/C=C/CC/C=C/C=C/C=C/C=C/C(O[C@H]2O[C@H](C)[C@@H](O)[C@H](N)[C@@H]2O)CC2O[C@](O)(CC(O)C(O)CCC(O)CC(O)CC(O)CC(=O)O[C@H]1C)CC(O)C2C(=O)O (some centres unmarked) [NYS, nystatin, reference compound]
MIC St ([1]; S. tritici MUCL45408, 4 days): 0.25 µg/mL (≈ 0.27 µM)

CC(=O)Oc1ccccc1C(=O)Nc1ncc([N+](=O)[O-])s1 [Nitazoxanide, reference compound]
C. elegans MMIC DC19 [2, 8]: > 10 µg/mL | C. elegans MMIC N2 [3, 8]: > 10 µg/mL

CC(C)C[C@H]1C(=O)O[C@H](Cc2ccccc2)C(=O)N(C)[C@@H](CC(C)C)C(=O)O[C@H](C)C(=O)N(C)[C@@H](CC(C)C)C(=O)O[C@H](Cc2ccccc2)C(=O)N(C)[C@@H](CC(C)C)C(=O)O[C@H](C)C(=O)N1C [PF-1022A, reference compound]
C. elegans MMIC DC19 [2, 8]: 2.5 µg/mL | C. elegans MMIC N2 [3, 8]: 10 µg/mL

O=C(C1CCCCC1)N1CC(=O)N2CCc3ccccc3C2C1 (centres unmarked) [Praziquantel, reference compound]
C. elegans MMIC DC19 [2, 8]: > 10 µg/mL | C. elegans MMIC N2 [3, 8]: > 10 µg/mL

CO[C@H]1/C=C/O[C@@]2(C)Oc3c(C)c(O)c4c(O)c(c(/C=N/N5CCN(C)CC5)c(O)c4c3C2=O)NC(=O)/C(C)=C\C=C\[C@H](C)[C@H](O)[C@@H](C)[C@@H](O)[C@@H](C)[C@H](OC(C)=O)[C@@H]1C [RIF, rifampicin, reference compound]
MIC [4]: > 64 µg/mL | MIC [5]: 4 µg/mL (≈ 4.86 µM)

CC(C)(C)C(O)(CCc1ccc(Cl)cc1)Cn1cncn1 (centres unmarked) [TEB, tebuconazole, reference compound]
MIC ([1]; 96 h, S. tritici MUCL45408, 4 days): > 0.03 µg/mL

Abamectin [reference compound]
C. elegans MMIC DC19 [2, 8]: < 0.08 µg/mL | C. elegans MMIC N2 [3, 8]: < 0.08 µg/mL

ivermectin [IVR, reference compound]
MMIC DC19 ([2]; C. elegans DC19, 2 days): 0.005 µg/mL | C. elegans MMIC DC19 [2, 8]: 0.005 µg/mL | MMIC N2 ([3]; C. elegans N2, 2 days): 0.005 µg/mL | C. elegans MMIC N2 [3, 8]: 0.005 µg/mL

Source: publication PMC11718441, “Bis-3-chloropiperidines: a novel motif for anthelmintic drug design” (RSC Advances, 2025)
